# Measurements published in paper PMC12631912, “A Multifunctional Molecular Probe for Multimodal Imaging‐Guided Potent Photothermal/Photodynamic Therapy of Endometriosis” (Advanced Science, 2025).
# How the values were obtained:
# [1] = free ICG; cited from earlier work
# [2] = UV absorption and fluorescence emission spectra; assay type: physicochemical; details: in PBS, cRGD-ILD C ICG = 10 µg mL^−1, ICG 5 µg/mL
# Description: The ^1H NMR spectra were conducted utilizing a Varian Unity 400 MHz Spectrometer ([…]) in a variety of deuterated solvents. ESI‐MS were obtained with a Thermo Scientific LTQ XL mass spectrometer (Thermo, USA). UV absorption spectra were measured by a Unico UV‐2000 UV–vis Spectrophotometer (Shanghai, China). Photoluminescence excitation and emission spectra were recorded using an FSP920‐combined Time Resolved and Steady State Fluorescence Spectrometer (Edinburgh, UK), equipped with a 450‐W xenon lamp. Both the UV and fluorescence spectrophotometers were scanned within the wavelength range of 650–850 nm.
# [3] = design: method as in earlier work; details: clinically approved contrast agent; cited from earlier work
fluorescence emission peak ([2]; λex = 755 nm) [nm],absorption peak [2] [nm],Compound,Photothermal conversion efficiency (PCE) [1] [%],T 1 relaxivities (r 1) [3] [mM⁻¹ s⁻¹]
764,755,"CC1(C)C(/C=C/C=C/C=C/C=C2\N(CCCCS(=O)(=O)O)c3ccc4ccccc4c3C2(C)C)=[N+](CCCCS(=O)(=O)[O-])c2ccc3ccccc3c21 [ICG, indocyanine green, reference compound]",15.8,
,,CNC[C@H](O)[C@@H](O)[C@H](O)[C@H](O)CO.CNC[C@H](O)[C@@H](O)[C@H](O)[C@H](O)CO.O=C([O-])CN(CCN(CC(=O)[O-])CC(=O)O)CCN(CC(=O)[O-])CC(=O)O.[Gd+3] [Magnevist],,5.35
